Test results reported in US6642238B2, “Oxazolidinone thioamides with piperazine amide substituents” (Pharmacia and Upjohn Company, priority 2000, dated 2003).
≈ marks a conversion by molar mass, not a printed value.

Experiments:
[1] = system: Staphylococcus aureus (SAUR 9213); experiment: MIC by agar dilution, SAUR 9213; assay type: cell-based; conditions: Staphylococcus aureus, Minimum Inhibitory Concentration, strain SAUR 9213
Text: (§1) The oxazolidinone antibacterial agents of this invention have useful activity against a variety of organisms. The in vitro activity of compounds of this invention can be assessed by standard testing procedures such as the determination of minimum inhibitory concentration (MIC) by agar dilution as described in “Approved Standard. Methods for Dilution Antimicrobial Susceptibility Tests for Bacteria That Grow Aerobically”, 3rd. ed., published 1993 by the National Committee for Clinical Laboratory Standards, Villanova, Pa., USA. The activity of compounds of this invention against Staphylococcus aureus, Staphylococcus epidermidis, Streptococcus pneumoniae, Streptococcus pyogens, Enterococcus faecalis, Moraxella catarrhalis and H. influenzae is shown in Table 1.

[2] = system: H. influenzae (HINF 30063); experiment: MIC by agar dilution, HINF 30063; assay type: cell-based; conditions: Haemophilus influenzae, Minimum Inhibitory Concentration, strain HINF 30063
Text: as §1

[3] = system: Staphylococcus epidermidis (SEPI 30593); experiment: MIC by agar dilution, SEPI 30593; assay type: cell-based; conditions: Staphylococcus epidermidis, Minimum Inhibitory Concentration, strain SEPI 30593
Text: as §1

[4] = system: Streptococcus pneumoniae (SPNE 9912); experiment: MIC by agar dilution, SPNE 9912; assay type: cell-based; conditions: Streptococcus pneumoniae, Minimum Inhibitory Concentration, strain SPNE 9912
Text: as §1

[5] = system: Enterococcus faecalis (EFAE 12712); experiment: MIC by agar dilution, EFAE 12712; assay type: cell-based; conditions: Enterococcus faecalis, Minimum Inhibitory Concentration, strain EFAE 12712
Text: as §1

[6] = system: Moraxella catarrhalis (MCAT 30607); experiment: MIC by agar dilution, MCAT 30607; assay type: cell-based; conditions: Moraxella catarrhalis, Minimum Inhibitory Concentration, strain MCAT 30607
Text: as §1

[7] = system: Enterococcus faecalis (EFAE 9217); experiment: MIC by agar dilution, EFAE 9217; assay type: cell-based; conditions: Enterococcus faecalis, Minimum Inhibitory Concentration, strain EFAE 9217
Text: as §1

[8] = system: Streptococcus pyogens (SPYO 152); experiment: MIC by agar dilution, SPYO 152; assay type: cell-based; conditions: Streptococcus, Minimum Inhibitory Concentration, strain SPYO 152
Text: as §1

Molecule CCC(=S)NC[C@H]1CN(c2ccc(N3CCN(C(=O)C(C)=O)CC3)c(F)c2)C(=O)O1 [EX 12, N-({(5S)-3-[3-fluoro-4-(4-pyruvoyl-1-piperazinyl)phenyl]-2-oxo-1,3-oxazolidin-5-yl}methyl)propanethioamide] has an MIC [1] of 2 µg/mL (≈ 4.58 µM), an MIC [2] of 8 µg/mL (≈ 18.3 µM) and an MIC [3] of 1 µg/mL (≈ 2.29 µM). For the same molecule, the MIC [4] was 0.5 µg/mL (≈ 1.15 µM), the melting point was 173 to 175 °C (dec.) and the MIC [5] was 1 µg/mL (≈ 2.29 µM). It also gave an MIC [6] of 2 µg/mL (≈ 4.58 µM), an MIC [7] of 1 µg/mL (≈ 2.29 µM) and an MIC [8] of 0.5 µg/mL (≈ 1.15 µM).

Work on CCC(=S)NC[C@H]1CN(c2ccc(N3CCN(C(=O)C4(O)CC4)CC3)c(F)c2)C(=O)O1 [EX 14, N-{[(5S)-3-(3-fluoro-4-{4-[(1-hydroxycyclopropyl)carbonyl]-1-piperazinyl}phenyl)-2-oxo-1,3-oxazolidin-5-yl]methyl}propanethioamide] yielded an MIC [1] of 4 µg/mL (≈ 8.88 µM), an MIC [2] of 32 µg/mL (≈ 71 µM) and an MIC [3] of 1 µg/mL (≈ 2.22 µM). For the same molecule, the MIC [4] was 0.5 µg/mL (≈ 1.11 µM), the melting point was 185 to 186 °C (dec.) and the MIC [5] was 2 µg/mL (≈ 4.44 µM). For the same molecule, the MIC [6] was 2 µg/mL (≈ 4.44 µM), the MIC [7] was 1 µg/mL (≈ 2.22 µM) and the MIC [8] was 1 µg/mL (≈ 2.22 µM).

In the case of CCC(=S)NC[C@H]1CN(c2ccc(N3CCN(C(=O)[C@@H](O)CO)CC3)c(F)c2)C(=O)O1 [EX 16, N-({(5S)-3-[3-fluoro-4-[4-((2S)-2,3-dihydroxypropanoyl)-1-piperazinyl]phenyl]-2-oxo-1,3-oxazolidin-5-yl}methyl)propanethioamide], the MIC [1] is reported as 4 µg/mL (≈ 8.8 µM), the MIC [2] is reported as 8 µg/mL (≈ 17.6 µM) and the MIC [3] is reported as 0.5 µg/mL (≈ 1.1 µM). The MIC [4] was 0.5 µg/mL (≈ 1.1 µM), the melting point was 142 °C (dec.) and the MIC [5] was 1 µg/mL (≈ 2.2 µM). It also gave an MIC [6] of 2 µg/mL (≈ 4.4 µM), an MIC [7] of 0.5 µg/mL (≈ 1.1 µM) and an MIC [8] of 0.5 µg/mL (≈ 1.1 µM).

In the case of CCC(=S)NC[C@H]1CN(c2ccc(N3CCN(C(=O)[C@@H](O)COC)CC3)c(F)c2)C(=O)O1 [EX 8, N-[((5S)-3-{3-fluoro-4-[4-((2S)-2-hydroxy-3-methoxypropanoyl)-1-piperazinyl]phenyl}-2-oxo-1,3-oxazolidin-5-yl)methyl]propanethioamide], the MIC [1] is reported as 2 µg/mL (≈ 4.27 µM), the MIC [2] is reported as 16 µg/mL (≈ 34.1 µM) and the MIC [3] is reported as 1 µg/mL (≈ 2.13 µM). The MIC [4] was 0.5 µg/mL (≈ 1.07 µM), the melting point was 190 to 191 °C (dec.) and the MIC [5] was 2 µg/mL (≈ 4.27 µM). It also gave an MIC [6] of 2 µg/mL (≈ 4.27 µM), an MIC [7] of 1 µg/mL (≈ 2.13 µM) and an MIC [8] of 0.5 µg/mL (≈ 1.07 µM).
